Test results: article PMC10495264 (Nature Cell Biology, 2023)

Tested on: intracellular TAG and palmitate (C16:0) levels
Assay: TAG and palmitate (C16:0) measurements by LC-HRMS
Assay type: cell-based, human
Details: ED Fig. 5t; compared with BSA
Description: The intracellular levels of TAGs and palmitate (C16:0) were determined using liquid chromatography-high resolution mass spectrometry-based analysis. Briefly, cells were seeded in 10-cm dishes and treated as described in the ‘Mammalian cell culture treatments’ section. The cells were scraped in medium and collected by centrifugation (400g, 3 min). The pellets were then washed three times with 1 ml ice-cold PBS, snap frozen in liquid nitrogen and kept at −80 °C until further processing.
The samples were vortexed for 10 s immediately after the addition of the extraction buffer and then incubated for 30 min on an orbital shaker at 4 °C. The proteins were pelleted by centrifugation (10 min, 21,000g, 4 °C) and the supernatants were transferred to a clean 2-ml tube. […]
The lipid pellets were resuspended in 200 µl ultra-performance liquid chromatography (UPLC)-grade acetonitrile:isopropanol 70:30 (vol/vol). […] In both cases, the analysed mass range was in the range of m/z 150–1,500. […]
All samples were analysed in a randomized run order. […] For measurements of intracellular TAG abundance (Extended Data Fig. 5r), the sum of all values corresponding to the peak areas for the different individual TAGs was calculated for each sample.

BSA-C16:0
C16:0 (peak area), Mean: 531779
